Literature values as cited in publication PMC8201747, “Cell Permeability of Isomeric Macrocycles: Predictions and NMR Studies” (ACS Medicinal Chemistry Letters, 2021).

Tested on: Caco-2 cell monolayer
Settings: Table S17, reported previously, ref 13 (SI); for ER (efflux ratio): Caco-2

Structure (SMILES) | ER (efflux ratio) | Permeability (passive permeability across a Caco-2 cell monolayer, Papp AB+inhibitor cocktail)
CO[C@H]1CN(C)C(=O)c2cc(C#N)ccc2OC[C@@H]2O[C@H](CC[C@H]2OC)CCN(C)C(=O)[C@@H]1C [Macrocycle 5] | 1.40 | 1.89 ×10⁻⁶ cm/s
CO[C@@H]1CC[C@@H]2CCN(C)C(=O)[C@H](C)[C@H](OC)CN(C)C(=O)c3cccc(C#N)c3OC[C@@H]1O2 [Macrocycle 6] | 0.81 | 23.08 ×10⁻⁶ cm/s
CO[C@H]1CN(C)C(=O)c2cccc(C#N)c2OC[C@@H]2O[C@H](CC[C@H]2OC)CCN(C)C(=O)[C@@H]1C [Macrocycle 7] | 0.78 | 6.36 ×10⁻⁶ cm/s
